According to US20080194585A1, “Fungicidal Pyrazine Derivatives” (priority 2005, published 2008):
Marks after values point to notes of the source that are not given here.

Columns and labels:
[1] = system: Erysiphe graminis f. sp. tritici; assay: Test L: wheat powdery mildew, preventive spray on wheat seedlings
Septoria nodorum = assay: Test H: wheat glum blotch, preventive spray on wheat seedlings
Procedure: (the causal agent of wheat glum blotch) and incubated in a saturated atmosphere at 20° C. for 48 h, and then moved to a growth chamber at 22° C. for 5 days, after which disease ratings were made.

Plasmopara viticola = assay: Test D: grape downy mildew, spray after inoculation of grape seedlings; format: in vivo
Source text: Upon removal, disease ratings were made. […] A dash (-) indicates no test results.

fusarium graminearium = assay: Test I: wheat head scab, preventive spray on wheat seedlings
Procedure: (the causal agent of wheat head scab) and incubated in a saturated atmosphere at 20° C. for 72 h, and then moved to a growth chamber at 22° C. for 5 days, after which disease ratings were made.

Sclerotinia sclerotiorum = assay: Test C: cucumber white mold, preventive spray on cucumber seedlings
Pythium aphanidermatum = assay: Test A: bluegrass pythium blight, preventive spray on bluegrass seedlings
Phytophthora infestans = assay: whole plant or invertebrate; format: in vivo
Rhizoctonia oryzae = assay: Test G: turf brown patch, preventive spray on creeping bent grass seedlings
Procedure: (the causal agent of turf brown patch) and incubated in a saturated atmosphere at 27° C. for 24 h, and then moved to a growth chamber at 27° C. for 5 days, after which disease ratings were made.

Septoria tritici = assay: Test J: wheat leaf blotch, preventive spray on wheat seedlings; format: in vivo
Source text: A dash (-) indicates no test results.

[2] = system: Puccinia recondita f. sp. tritici; assay: Test K: wheat leaf rust, preventive spray on wheat seedlings
[3] = system: Colletotrichum orbiculare; assay: Test B: cucumber Colletotrichum anthracnose, preventive spray on cucumber seedlings
Botrytis cinerea = assay: Test E: tomato botrytis, preventive spray on tomato seedlings
[4] = 200 ppm, 100 = 100% disease control, 0 = no control
[5] = 40 ppm (marked *), 100 = 100% disease control, 0 = no control

Compound	Test D disease control rating (Plasmopara viticola; 200 ppm) [%]	Test I disease control rating (fusarium graminearium; 200 ppm) [%]	Test C disease control rating (Sclerotinia sclerotiorum; 200 ppm) [%]	Test A disease control rating (Pythium aphanidermatum; 200 ppm) [%]	Test F disease control rating (Phytophthora infestans; 200 ppm) [%]	Test L disease control rating ([1]; 40 ppm (*))	Test H disease control rating (Septoria nodorum; 40 ppm (*))	Test G disease control rating (Rhizoctonia oryzae; 40 ppm (*))	Test J disease control rating (Septoria tritici; 40 ppm (*))	Test K disease control rating ([2]; 40 ppm (*))	Test B disease control rating ([3]; 40 ppm (*))	Test E disease control rating (Botrytis cinerea; 40 ppm (*))	further results
COc1cc(OC)c(-c2c(Cl)nc(-n3cccn3)c(=O)n2CC(C)C)c(OC)c1 [compound 86]	0	23	4	0	0								Test L disease control rating ([1]; 200 ppm): 0%; Test H disease control rating (Septoria nodorum; 200 ppm): 0%; Test G disease control rating (Rhizoctonia oryzae; 200 ppm): 0%; Test J disease control rating (Septoria tritici; 200 ppm): 0%; Test K disease control rating ([2]; 200 ppm): 0%; Test B disease control rating ([3]; 200 ppm): 0%; Test E disease control rating (Botrytis cinerea; 200 ppm): 0%
O=c1c(-n2cccn2)nc(Cl)c(-c2ccccc2Cl)n1Cc1ccccc1 [compound 288]													Test L disease control rating [1, 4]: 91%; Test H disease control rating (Septoria nodorum; [4]): 100%; Test D disease control rating (Plasmopara viticola; [4]): 0%; Test I disease control rating (fusarium graminearium; [4]): 0%; Test C disease control rating (Sclerotinia sclerotiorum; [4]): 0%; Test A disease control rating (Pythium aphanidermatum; [4]): 0%; Test F disease control rating (Phytophthora infestans; [4]): 0%; Test G disease control rating (Rhizoctonia oryzae; [4]): 0%; Test J disease control rating (Septoria tritici; [5]): 100* %; Test K disease control rating [2, 4]: 91%; Test B disease control rating [3, 4]: 91%; Test E disease control rating (Botrytis cinerea; [4]): 100%
CCC(C)Cn1c(-c2c(F)cccc2F)c(Cl)nc(C(=O)NCC2CC2)c1=O (stereo not drawn) [compound 300]													Test L disease control rating [1, 4]: 97%; Test H disease control rating (Septoria nodorum; [4]): 99%; Test D disease control rating (Plasmopara viticola; [4]): 40%; Test I disease control rating (fusarium graminearium; [4]): 0%; Test C disease control rating (Sclerotinia sclerotiorum; [4]): 0%; Test A disease control rating (Pythium aphanidermatum; [4]): 0%; Test F disease control rating (Phytophthora infestans; [4]): 0%; Test G disease control rating (Rhizoctonia oryzae; [4]): 16%; Test J disease control rating (Septoria tritici; [4]): 100%; Test K disease control rating [2, 4]: 100%; Test B disease control rating [3, 4]: 93%; Test E disease control rating (Botrytis cinerea; [4]): 100%
CC(C)Cn1c(-c2ccc(C(F)(F)F)cc2)c(Cl)nc(-n2cncn2)c1=O [compound 76]	0	0	0	0	21	0* %	0* %	0* %	0* %	0* %	0* %	0* %	
CC(C)Cn1c(-c2ccc(C(C)(C)C)cc2)c(Cl)nc(-n2cncn2)c1=O [compound 75]	0	0	0	0	0	0* %	0* %	0* %	7* %	0* %	0* %	0* %	
CC(C)Cn1c(-c2ccc(F)cc2Cl)c(Cl)nc(-n2cccn2)c1=O [Compound 303, 5-Chloro-6-(2-chloro-4-fluorophenyl)-1-(2-methylpropyl)-3-(1H-pyrazol-1-yl)-2(1H)-pyrazinone]													Test L disease control rating [1, 5]: 100* %; Test H disease control rating (Septoria nodorum; [5]): 100* %; Test D disease control rating (Plasmopara viticola; [4]): 58%; Test I disease control rating (fusarium graminearium; [4]): 0%; Test C disease control rating (Sclerotinia sclerotiorum; [4]): 94%; Test A disease control rating (Pythium aphanidermatum; [4]): 0%; Test F disease control rating (Phytophthora infestans; [4]): 0%; Test G disease control rating (Rhizoctonia oryzae; [5]): 100* %; Test J disease control rating (Septoria tritici; [5]): 100* %; Test K disease control rating [2, 5]: 100* %; Test B disease control rating [3, 5]: 100* %; Test E disease control rating (Botrytis cinerea; [5]): 100* %
CCC(C)Cn1c(-c2c(F)cccc2F)c(Cl)nc(-n2cnc(Cl)c2Cl)c1=O (stereo not drawn) [compound 68]	0	0	0	0	0	0* %	0* %	0* %	26* %	0* %	0* %	0* %	
CC[C@H](C)Cn1c(-c2ccc(F)cc2Cl)c(Br)nc(-n2cccn2)c1=O [compound 281]													Test L disease control rating [1, 5]: 100* %; Test H disease control rating (Septoria nodorum; [5]): 100* %; Test D disease control rating (Plasmopara viticola; [5]): 0* %; Test I disease control rating (fusarium graminearium; [5]): 0* %; Test C disease control rating (Sclerotinia sclerotiorum; [5]): 0* %; Test A disease control rating (Pythium aphanidermatum; [5]): 0* %; Test F disease control rating (Phytophthora infestans; [5]): 0* %; Test G disease control rating (Rhizoctonia oryzae; [5]): 47* %; Test J disease control rating (Septoria tritici; [5]): 100* %; Test K disease control rating [2, 5]: 100* %; Test B disease control rating [3, 5]: 100* %; Test E disease control rating (Botrytis cinerea; [5]): 100* %
CC(C)Cn1c(-c2c(F)cc(F)cc2F)c(Cl)nc(-n2cccn2)c1=O [compound 7]	88	99	95	51	0								Test L disease control rating ([1]; 200 ppm): 100%; Test H disease control rating (Septoria nodorum; 200 ppm): 100%; Test G disease control rating (Rhizoctonia oryzae; 200 ppm): 95%; Test J disease control rating (Septoria tritici; 200 ppm): 100%; Test K disease control rating ([2]; 200 ppm): 100%; Test B disease control rating ([3]; 200 ppm): 100%; Test E disease control rating (Botrytis cinerea; 200 ppm): 100%
CC(C)Cn1c(-c2cccc3ccccc23)c(Cl)nc(-n2cncn2)c1=O [compound 129]						0* %	0* %	0* %	19* %	0* %	0* %	0* %	Test D disease control rating (Plasmopara viticola; 40 ppm (*)): 0* %; Test I disease control rating (fusarium graminearium; 40 ppm (*)): 0* %; Test C disease control rating (Sclerotinia sclerotiorum; 40 ppm (*)): 0* %; Test A disease control rating (Pythium aphanidermatum; 40 ppm (*)): 0* %; Test F disease control rating (Phytophthora infestans; 40 ppm (*)): 0* %
CC(C)Cn1c(-c2c(Cl)ccc(Cl)c2Cl)c(Cl)nc(-n2cncn2)c1=O [compound 120]	0	86	93	0	0	0* %	64* %	0* %	91* %	55* %	0* %	99* %	
CCC(C)Cn1c(-c2c(F)cccc2F)c(Cl)nc(-n2ccc(C)n2)c1=O (stereo not drawn) [compound 66]	0	0		0	0	99* %	89* %	95* %	100* %	97* %	62* %	100* %	Test C disease control rating (Sclerotinia sclerotiorum; 40 ppm (*)): 0* %
